PMC3471877 (PLoS ONE, 2012)
Where two headings read alike, the source gives them in different places. Square brackets hold non-standard residues; d marks the D form. Peptide text beside a SMILES is read from it.

How the values were obtained:
[1] = biological target: T1, ET receptors in human primary PASMC (Homo sapiens, UniProt P25101); test: cell-based; details: ET-1 EC50–EC70
recombinant ETA receptor [2] = biological target: T2, recombinant ETA receptor (Homo sapiens, UniProt P25101); test: cell-based
T2 sequence (P25101 21-427): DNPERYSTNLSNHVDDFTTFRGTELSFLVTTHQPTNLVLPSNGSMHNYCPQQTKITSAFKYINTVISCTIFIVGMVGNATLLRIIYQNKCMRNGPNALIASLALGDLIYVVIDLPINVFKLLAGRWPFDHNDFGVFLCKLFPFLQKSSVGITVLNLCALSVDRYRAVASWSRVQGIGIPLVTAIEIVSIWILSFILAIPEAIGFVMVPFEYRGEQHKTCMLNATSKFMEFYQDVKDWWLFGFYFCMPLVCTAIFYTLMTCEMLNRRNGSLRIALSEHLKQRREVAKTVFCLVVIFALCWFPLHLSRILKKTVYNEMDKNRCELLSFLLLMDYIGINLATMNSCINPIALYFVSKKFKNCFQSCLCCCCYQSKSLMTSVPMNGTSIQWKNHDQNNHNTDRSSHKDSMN

recombinant ETA receptor [3] = biological target: T2, recombinant ETA receptor; details: read-out: Kb CHO-ETA; 120 min antagonist pre-incubation; ET-1 EC50–EC70; from IC50 via Cheng-Prusoff; geometric mean n = 3–8
recombinant ETB receptor [4] = biological target: T3, recombinant ETB receptor (Homo sapiens, UniProt P24530); details: read-out: Kb CHO-ETB; 120 min antagonist pre-incubation; ET-1 EC50–EC70; from IC50 via Cheng-Prusoff; geometric mean n = 3–8
T3 sequence (P24530 27-442): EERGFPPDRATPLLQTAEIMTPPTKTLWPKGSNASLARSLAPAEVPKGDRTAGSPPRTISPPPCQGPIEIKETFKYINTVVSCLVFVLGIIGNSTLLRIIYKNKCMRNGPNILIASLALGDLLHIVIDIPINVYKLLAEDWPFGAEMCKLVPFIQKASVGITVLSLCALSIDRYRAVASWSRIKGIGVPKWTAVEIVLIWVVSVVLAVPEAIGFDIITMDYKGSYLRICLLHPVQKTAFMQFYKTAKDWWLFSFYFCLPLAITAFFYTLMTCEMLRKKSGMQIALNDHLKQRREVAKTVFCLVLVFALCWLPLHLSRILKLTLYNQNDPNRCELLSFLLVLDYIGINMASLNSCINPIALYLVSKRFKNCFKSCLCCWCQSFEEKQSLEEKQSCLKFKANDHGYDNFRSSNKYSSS

[5] = biological target: T1, ET receptors in human primary PASMC; details: for Kb: ET-1 EC50–EC70
[6] = biological target: T1, ET receptors in human primary PASMC; details: for proportion of receptors dissociated from within the first 30 seconds: estimated assuming 1:1 correlation between signal and receptor occupancy; for ROt1/2: estimated from first calcium response phase at 1 µM ET-1; for proportion of ET-1-induced signal with surmountable mode of antagonism: first calcium response phase, peak, 1 µM ET-1
[7] = biological target: T1, ET receptors in human primary PASMC
[8] = biological target: T1, ET receptors in human primary PASMC; test: cell-based; details: 120 min pre-incubation
[9] = biological target: T1, ET receptors in human primary PASMC; remark: listed apart in the source
[10] = biological target: T1, ET receptors in human primary PASMC; test: cell-based; details: 120 min pre-incubation; remark: listed apart in the source
P2Y12 = details: cited from earlier work
angiotensin II receptor = details: cited from earlier work
recombinant ETB receptor [11] = biological target: T3, recombinant ETB receptor; test: cell-based
[12] = Kb 10 min, 10 min antagonist pre-incubation, geometric mean n = 6
[13] = Kb PASMC, Table 1, 120 min antagonist pre-incubation, from IC50 via Cheng-Prusoff, geometric mean n = 3–8
[14] = Kb 120 min, 120 min antagonist pre-incubation (steady state), geometric mean n = 6
[15] = Kb IP1 accumulation, 20 min ET-1 stimulation, IC50 at […] ET-1 via Cheng-Prusoff, n = 4
[16] = Schild Kb IP1 accumulation, 90 min ET-1 stimulation, Gaddum/Schild regression, n = 3
[17] = Kb1 (first calcium response phase), peak fluorescence, IC50 at 8 nM ET-1 via Cheng-Prusoff
[18] = Kb2 (second sustained calcium response phase), AUC 3–23 min, IC50 at […] ET-1 via Cheng-Prusoff

T1 sequence (P25101 21-427): as the sequence (P25101 21-427) above

Row | Kb [1, 12] | Kb [1, 13] | Kb (recombinant ETA receptor [2]) | Kb [1, 14] | proportion of ET-1-induced signal with surmountable mode of antagonism [6] | mode of antagonism, IP1 accumulation ([7]; 20 min ET-1 stimulation) | mode of antagonism, IP1 accumulation ([7]; 90 min ET-1 stimulation) | Kb (recombinant ETB receptor [11]) | SMILES | further results
1 | 0.61 nM | 0.62 nM | 9.4 nM | – | – | – | – | – | CC(C)C[C@@H]1NC(=O)[C@@H](C(C)C)NC(=O)[C@@H]2CCCN2C(=O)[C@@H](CC(=O)O)NC(=O)[C@@H](Cc2c[nH]c3ccccc23)NC1=O [BQ-123] (cyclo(L[dW][dD]P[dV])) | –
2 | – | – | – | – | – | – | – | – | CCCC[C@@H](NC(=O)[C@@H](Cc1cn(C(=O)OC)c2ccccc12)NC(=O)[C@H](CC(C)(C)C)NC(=O)N1[C@H](C)CCC[C@@H]1C)C(=O)O [BQ-788] | Kb (recombinant ETA receptor [3]): 277 nM; Kb (recombinant ETB receptor [4]): 0.09 nM; Kb ratio ([5]; Kb 10 min versus 120 min pre-incubation (fold increase in potency)): 1.0; Kb ([5]; read-out: Kb 10 min, 10 min antagonist pre-incubation, geometric mean n = 6): 121 nM; Kb ([5]; read-out: Kb 120 min, 120 min antagonist pre-incubation (steady state), geometric mean n = 6): 117 nM; Kb ([5]; read-out: Kb PASMC, Table 1, 120 min antagonist pre-incubation, from IC50 via Cheng-Prusoff, geometric mean n = 3–8): 117 nM
3 | 0.11 nM | – | – | 0.12 nM | ~30% | surmountable | surmountable antagonism | – | COC(c1ccccc1)(c1ccccc1)[C@H](Oc1nc(C)cc(C)n1)C(=O)O [ambrisentan] | proportion of receptors dissociated from within the first 30 seconds [6]: ~30%; ROt1/2 [6]: < 1 min; Kb [8, 15]: 1.1 nM; Kb [8, 16]: 1.6 nM; receptor occupancy half-life (ROt1/2) [9]: 0.667 min; Ki [10, 17]: 0.27 nM; Ki [10, 18]: 0.14 nM
4 | – | – | – | – | ~50% | surmountable | surmountable antagonism | – | COc1ccccc1Oc1c(NS(=O)(=O)c2ccc(C(C)(C)C)cc2)nc(-c2ncccn2)nc1OCCO [bosentan] | proportion of receptors dissociated from within the first 30 seconds [6]: ~50%; ROt1/2 [6]: < 1 min
5 | – | – | – | – | – | – | – | – | COC(=O)[C@H](c1ccccc1Cl)N1CCc2sccc2C1 [clopidogrel] | binding mode (P2Y12): irreversible binding
6 | – | – | – | – | – | – | – | – | CCCCc1nc(Cl)c(CO)n1Cc1ccc(-c2ccccc2-c2nn[nH]n2)cc1 [losartan] | shorter ROt1/2 compared to candesartan and olmesartan (angiotensin II receptor): 15–25 fold
7 | 0.86 nM | – | – | 0.14 nM | no surmountable behavior | insurmountable | surmountable antagonism | – | CCCNS(=O)(=O)Nc1ncnc(OCCOc2ncc(Br)cn2)c1-c1ccc(Br)cc1 [macitentan] | mode of antagonism, second sustained phase of calcium elevation ([6]; AUC 3–23 min after ET-1): insurmountable; mode of antagonism, IP1 accumulation ([7]; 20 min ET-1 stimulation, listed as Macitentan): insurmountable antagonism; Kb [8, 15]: 0.74 nM; Kb [8, 16]: 1.4 nM; increase in ROt1/2 compared to ambrisentan and bosentan [9]: ~15 fold; receptor occupancy half-life (ROt1/2) [9]: 17 min; loss in potency after washout ([9]; over 60 min after washout): 13 fold; Ki [10, 17]: 0.17 nM; Ki [10, 18]: 0.093 nM
8 | 2.9 nM | 4.2 nM | 20 nM | 4.2 nM | – | – | – | 4470 nM | Cc1cc2c(cc1CC(=O)c1sccc1S(=O)(=O)Nc1onc(C)c1Cl)OCO2 [sitaxentan] | –
9 | 0.042 nM | 0.01 nM | 0.26 nM | 0.01 nM | – | – | – | 0.5 nM | COc1ccccc1Oc1c(NS(=O)(=O)c2ccc(C(C)C)cn2)nc(-c2ccnc(-c3nnn[nH]3)c2)nc1OCCO [tezosentan] | –

Row | SMILES | Kb [1, 12] | Kb [1, 13] | Kb (recombinant ETA receptor [2]) | Kb [1, 14] | proportion of ET-1-induced signal with surmountable mode of antagonism [6] | mode of antagonism, IP1 accumulation ([7]; 20 min ET-1 stimulation) | mode of antagonism, IP1 accumulation ([7]; 90 min ET-1 stimulation) | Kb (recombinant ETB receptor [11]) | further results
10 | COc1nc(C)cnc1NS(=O)(=O)c1cccnc1-c1ccc(-c2nnco2)cc1 [zibotentan] | – | – | – | – | – | – | – | 4390 nM | –
